# Measurements published in patent publication US20020042403A1, “Use of vitamin D analogs to treat conditions related to increased oxidative stress” (priority 1998, published 2002).
# Legend:
# keratinocytes = assay: cis-parinaric acid (PnA) assay of AMVN-induced phospholipid oxidation in live keratinocytes; assay type: cell-based, human
# Method: Comparison of the Antioxidant Potency of ST-630 with that of Calcitriol and Alpha-Tocopherol in Live Keratinocytes Using the Cis-parinaric Acid (PnA) assay […].
# Keratinocytes were incubated in the presence of a complex of PnA with human serum albumin (PnA-HSA) for up to […] to incorporate PnA into cellular phospholipids. […] The incorporation of PnA in the various phospholipids was differential and the amount of PnA incorporated was in the following order: PC>PEA>PI>PS>SPH>DPG. The constituent phospholipids were separated from the total lipid extract by HPLC. Major fluorescence peaks were identified using authentic phospholipids standards including DPG, PI, PEA, PS, PC and SPH.
# To determine the effects of ST-630 on keratinocytes subjected to oxidative stress cell suspensions labeled with PnA were incubated with or without ST-630 (5-500 nM) in the dark at 37° C. for 1 hr in the presence of […] AMVN. Based on the known rate constant of AMVN decomposition under the experimental conditions employed (Niki, 1990), at 0.5 mM it can be estimated that 2.4 nanomoles (nmoles) of peroxyl radicals are generated per hour at 37° C. in each incubation containing 10^6 cells. Incubation of keratinocytes with AMVN for 1 hr induced significant oxidation of all the detected phospholipids.
# human keratinocyte cells = assay: AMVN-induced hypodiploidy (apoptosis) in keratinocytes, flow cytometric analysis; assay type: cell-based
# Source text: Nucleus/DNA of cells treated with chemical or physical agents undergo changes primarily by the activation of the nucleases, before they lose the membrane integrity. Such changes are due to the loss of DNA or fragmentation of the nucleus into apoptotic bodies. Flow cytomeric analysis of a population of cells can reveal the appearance of a hypodiploid population and changes in the stages of the cell cycle.
# AMVN induces changes in the cell cycle pattern and it can be modified either by calcitriol or ST-630. […] AMVN-derived peroxyl radicals primarily cause damage to the DNA and repair of DNA is accomplished during the G1 or G2 block. When keratinocytes were treated with various concentrations of ST-630 or calcitriol, and subsequently exposed to AMVN there was a considerable reduction in the level of hypodiploid cells. This effect was concentration-dependent. […] The highest concentration of calcitriol used, i.e. 500 nM reduced the hypodiploidy by 60%. […] 10 nM of ST-630 blocked the hypodiploidy by 60%.
# [1] = system: human neutrophils (PMNLs); assay: oxidative burst (superoxide production, cytochrome c reduction) in human neutrophils; assay type: cell-based
# Source text: This example provides studies of oxidative burst and chemotaxis in human neutrophils. Oxidative (respiratory) burst in polymorphonuclear nuetrophils (PMN) is a major mechanism of defense against bacterial and/or viral pathogens. Oxidative burst is a complex process resulting in the generation by PMN of a huge amount of oxygen free radicals (superoxide and hydroxyl radicals) and chemically reactive substances—hydrogen peroxide and hypochlorite. The mechanism of cell activation involves such steps as increase of intracellular Ca^2+ concentration upon the interaction of activator, increasing the activity of protein kinase C, activation of NADPH oxidase with subsequent generation of superoxide radicals and hydrogen peroxide in the phagosomes and in the surrounding area, releasing and activation of myeloperoxidase and production of hypochlorite (HOCL).
# The respiratory burst in PMNLs (isolated from fresh heparinized whole blood by dextran sedimentation) was initiated by the addition of N-formylmethionyl-leucyl-phenylalanine-methylester, FLPM (10^−7M), phorbol12,13-miristate, acetate, PMA (0.01 μg/ml) and opsonized zimozan (1.0 mg/ml). Superoxide production was assayed by the superoxide dismutase-22 inhibitable reduction of cytochrome c. […]
# human neutrophils = assay: chemotaxis in human neutrophils, multiwell chamber with FLPM; assay type: cell-based; details: higher concentrations of FLPM as chemotactic factor
# Source text: For chemotaxis assay, chemotactic solution (medium 199 containing 0.5% BSA and FLPM) and multiwell chamber were used. The numbers of migrated neutrophils for different concentrations of FLPM (as a chemotactic factor) were within the usually observable range (see Table 4 in the Appendix). […] Despite this, the data are consistent with the effects of these compounds on superoxide release. Both ST-630 and calcitriol appear to be inhibitory when higher concentrations of FLPM were used.
# Propionibacterium acnes = assay: antibacterial disc inhibition zone test; assay type: cell-based; details: 6 mm filter paper discs, 48 hr at 36° C.
# Method: Propionibacterium acnes, the target of inflammation in acne, was tested for its sensitivity to ST-630 and calcitriol using the inhibition method standardly employed for assessment of antibiotic efficiency. The strain (lyophilized) P. acnes (batch # 96-09SV) was received from the US type culture collection (Rockville, Md.). It was revitalized in 0.5 ml freshly boiled (10 min) reinforced Clostridial medium. ST-630 or calcitriol dissolved in 5.0 μl DMSO were applied onto the top of sterilized discs made of filter paper (6 mm). Erythromycin (15 μg) and DMSO (5.0 μl) were used as controls (positive and negative, respectively). The plates were incubated for 48 hr at 36° C. and the diameter of the inhibition zone was measured. […] The antibacterial activity of ST-630 at concentration 12.8 μg was about 2.7-fold lower than that of 15 μg of erythromycin. We conclude that ST-630 (but not calcitriol) exerts a significant inhibitory antibacterial activity towards P. acnes.
# [2] = system: cultured human keratinocytes; assay: 3H-thymidine incorporation into keratinocyte DNA (proliferation); assay type: cell-based; details: 42 h and 66 h after initial dosing with 10^-8 M
# Method: Two experimental approaches were performed to assess the effect of ST-630 on the proliferation of cultured human keratinocytes. The first one was the ^3H-thymidine incorporation experiments that involved the use of a radiolabeled nucleotide which is specifically found in newly synthesized DNA molecules only. The second approach used in this study was the basal cell count. Although it is tedious, the second method is a more definitive way to determine cellular proliferation. Our results clearly establish the potency and the long-lasting effects of ST-630 in inhibiting cellular proliferation as determined by ^3H-thymidine and basal cell count.
# cultured keratinocytes = details: cited from earlier work
structure (smiles),measurement,setting,value
"C=C1/C(=C\C=C2/CCC[C@]3(C)[C@@H]([C@H](C)CCCC(C)(C)O)CC[C@@H]23)C[C@@H](O)C[C@@H]1O [calcitriol, reference compound]",concentration giving maximum antioxidant effectiveness/protection against AMVN-induced oxidation,"keratinocytes; PnA-labeled keratinocytes, 0.5 mM AMVN, 1 hr, 37° C.",25 to 50 nM
same,concentration-dependency of the protective effect,"keratinocytes; PnA-labeled keratinocytes, AMVN",two-phase protection pattern
same,reduction of AMVN-induced hypodiploidy,human keratinocyte cells; 10 nM,40%
same,effect on cell cycle,"human keratinocyte cells; 10 nM, then AMVN",blocked the cells at the G2/M phase
same,reduction of AMVN-induced hypodiploidy,human keratinocyte cells; 500 nM,60%
same,"superoxide release with known stimulants (FLPM, PMA, opsonized zymosan)",[1],act to prime for supertoxide release
same,effect on chemotaxis,human neutrophils,inhibitory
same,antibacterial activity (inhibition zone),Propionibacterium acnes,Neither DMSO nor calcitriol exerted any antibacterial activity
same,inhibitory (antiproliferative) activity with time,[2],diminished with time
same,metabolism in cultured keratinocytes,cultured keratinocytes,rapidly metabolized
"Cc1c(C)c2c(c(C)c1O)CC[C@@](C)(CCC[C@H](C)CCC[C@H](C)CCCC(C)C)O2 [vitamin E, Alpha-Tocopherol, reference compound]",antioxidant action compared with the other compounds,keratinocytes; concentrations 250 and 500 nm,comparable to that of ST-630
